Measured values from US7074785B2, “Δ1-pyrrolines used as pesticides” (Bayer Cropscience AG, priority 2001, dated 2006).
Read-outs that look alike come from different tables or passages of the source.

Key:
[1] = tested on: army worm (Spodoptera frugiperda) caterpillars; assay: Spodoptera frugiperda test; format: in vivo; details: in Brassica oleracea, 168 h, read-out: Kill rate in % after 7 d, 100 ppm, cabbage leaves dipped, Spodoptera frugiperda
[2] = tested on: caterpillars of the cabbage moth (Plutella xylostella, sensitive strain); assay: Plutella test, sensitive strain; format: in vivo; details: 100 ppm, cabbage leaves dipped
Description: Plutella Test, Sensitive Strain
(§1) Solvent: 7 parts by weight of dimethylformamide

[3] = tested on: army worm (Spodoptera exigua) caterpillars; assay: Spodoptera exigua test; format: in vivo; details: 100 ppm, cabbage leaves dipped
Description: as §1

[4] = logP determination by HPLC (reversed-phase C18, EEC Directive 79/831 Annex V.A8); format: physicochemical
Experimental: The logP values stated in the above tables and Preparation Examples are determined in accordance with EEC Directive 79/831 Annex V.A8 by HPLC (High Performance Liquid Chromatography) using a reversed-phase column (C 18). Temperature: 43° C.
In the acidic range at pH 2.3 the determination takes place using 0.1% aqueous phosphoric acid and acetonitrile as the mobile phases; linear gradient from 10% acetonitrile to 90% acetonitrile. Corresponding results are marked in the tables by “a)”
In the neutral range at pH 7.5 the determination takes place using 0.01 molar aqueous phosphate buffer solution and acetonitrile as the mobile phases; linear gradient from 10% acetonitrile to 90% acetonitrile. Corresponding results are marked in the tables by “b)”
Calibration is carried out using unbranched alkan-2-ones (having 3 to 16 carbon atoms), with known logP values (the logP values determined on the basis of the retention times using linear interpolation between two successive alkanones).

[5] = tested on: caterpillars of the cabbage moth (Plutella xylostella), resistant strain; assay: Plutella test, resistant strain; format: in vivo; details: 100 ppm, cabbage leaves dipped
Description: Plutella Test, Resistant Strain
as §1

[6] = tested on: larvae of the mustard beetle (Phaedon cochleariae); assay: Phaedon larvae test; details: in Brassica oleracea, 168 h, read-out: Kill rate in % after 7 d, 100 ppm, cabbage leaves dipped, Phaedon cochleariae larvae
[7] = tested on: greenhouse red spider mite (Tetranychus urticae); assay: Tetranychus test (OP resistant/dip treatment); format: in vivo; details: 168 h, read-out: Kill rate in % after 7 d, 100 ppm, bean plants dipped, Tetranychus urticae OP-resistant
Experimental: Tetranychus Test (OP Resistant/Dip Treatment)
as §1
After the desired period of time, the effect in % is determined.

[8] = tested on: Heliothis virescens caterpillars; assay: Heliothis virescens test; format: in vivo; details: 100 ppm, soya bean shoots dipped
Description: as §1

[9] = tested on: Boophilus microplus resistant/SP-resistant Parkhurst strain, adult satiated females; assay: Test with Boophilus microplus resistant/SP-resistant Parkhurst strain; format: in vivo; details: injected into abdomen, fertile egg deposition after 7 days
Experimental: Test with Boophilus microplus Resistant/SP-Resistant Parkhurst Strain
Test animals: Adult satiated females
(§2) Solvent: Dimethyl sulphoxide
20 mg of active compound are dissolved in 1 ml of dimethyl sulphoxide. Lower concentrations are prepared by dilution in the same solvent.
The test is carried out in 5 replications. 1 μl of the solutions is injected into the abdomen, and the animals are transferred to dishes and kept in a climate-controlled room. After 7 days, activity is checked by examination for deposition of fertile eggs. Eggs whose fertility is not externally visible are stored in glass tubes in a controlled-environment cabinet until the larvae have hatched. An activity of 100% denotes that none of the ticks has laid fertile eggs.

[10] = tested on: Adult Musca domestica, Reichswald strain (OP, SP, carbamate-resistant); assay: Test with flies (Musca domestica); format: in vivo; details: filter paper disc
Experimental: Test with Flies (Musca domestica)
Test animals: Adult Musca domestica, Reichswald strain (OP, SP, carbamate-resistant)
as §2
20 mg of active compound are dissolved in 1 ml dimethyl sulphoxide. Lower concentrations are prepared by dilution with distilled water.
2 ml of this active compound preparation are pipetted on filter paper discs (Ø9.5 cm) in Petri dishes of corresponding dimensions. After the filter discs have been dried, 25 test animals are transferred to the Petri dishes, which are then covered.
After 1, 3, 5, 24 and 48 hours the activity of the active compound preparation is measured. 100% means that all flies have been killed, 0% means that no fly has been killed.

[11] = HPLC, acidic range pH 2.3, 0.1% aqueous phosphoric acid/acetonitrile; marked a), read-out: log P (pH 2.3)
[12] = HPLC, neutral range pH 7.5, 0.01 molar phosphate buffer/acetonitrile; marked b), read-out: log P (pH 7.5)

| SMILES | pest or weed control at 100 ppm [1] [%] | Kill rate in % after 7 d [2] [%] | Kill rate in % after 7 d [3] [%] | chromatographic logP [4, 11] | chromatographic logP [4, 12] | Kill rate in % after 7 d [5] [%] | pest or weed control at 100 ppm [6] [%] | pest or weed control at 100 ppm [7] [%] | Kill rate in % after 7 d [8] [%] | Activity/kill in % ([9]; 20 μg/animal) [%] | Activity/kill in % ([9]; 100 μg/animal) [%] | Activity/kill in % ([9]; 4 μg/animal) [%] | chromatographic logP ([4]; reversed-phase C18 HPLC column; HPLC, acidic range pH 2.3, 0.1% aqueous phosphoric acid/acetonitrile; marked a), read-out: log P (pH 2.3)) | chromatographic logP ([4]; reversed-phase C18 HPLC column; HPLC, neutral range pH 7.5, 0.01 molar phosphate buffer/acetonitrile; marked b), read-out: log P (pH 7.5)) | Activity/kill in % ([10]; 20 ppm) [%] | Activity/kill in % ([10]; 100 ppm) [%] |
| --- | --- | --- | --- | --- | --- | --- | --- | --- | --- | --- | --- | --- | --- | --- | --- | --- |
| CCOC(=O)Nc1ccc(-c2ccc(C3CCC(c4c(F)cccc4F)=N3)cc2)cc1 (stereo not drawn) [Compound 6] | ≥ 95 | 100 | 100 | 2.62 | 3.85 | 100 | ≥ 85 | ≥ 85 | 100 |  |  |  |  |  |  |  |
| CC(C)OC(=O)Nc1ccc(-c2ccc(C3CCC(c4c(F)cccc4F)=N3)cc2)cc1 (stereo not drawn) [Compound 7] | ≥ 95 | 100 | 100 | 3 | 4.19 | 100 | ≥ 85 | ≥ 85 | 100 | 0 | 40 |  |  |  |  |  |
| CC(C)COC(=O)Nc1ccc(-c2ccc(C3CCC(c4c(F)cccc4F)=N3)cc2)cc1 (stereo not drawn) [Compound 8] |  | 100 | 100 | 3.32 | 4.54 | 100 |  |  | 100 | 40 | 80 | 0 |  |  |  |  |
| CNC(=O)Nc1ccc(-c2ccc(C3CCC(c4c(F)cccc4F)=N3)cc2)cc1 (stereo not drawn) [Compound 13] |  |  |  |  |  |  |  |  |  |  |  |  | 1.71 | 2.78 | 0 | 30 |
